Measured values as given in PMC12921516 (ACS Bio & Med Chem Au, 2025).

Legend:
hPTP1B1–400 = target: T1, hPTP1B1–400 (Homo sapiens, UniProt P18031); experiment: PTP1B inhibition, pNPP hydrolysis, long form; type: biochemical; details: pNPP substrate, 15 min 37 °C, pH 6.8; ± S.D
T1 construct: h PTP1B 1–400 IC 50 (μM ± S.D); made in house
T1 sequence (P18031 1-400): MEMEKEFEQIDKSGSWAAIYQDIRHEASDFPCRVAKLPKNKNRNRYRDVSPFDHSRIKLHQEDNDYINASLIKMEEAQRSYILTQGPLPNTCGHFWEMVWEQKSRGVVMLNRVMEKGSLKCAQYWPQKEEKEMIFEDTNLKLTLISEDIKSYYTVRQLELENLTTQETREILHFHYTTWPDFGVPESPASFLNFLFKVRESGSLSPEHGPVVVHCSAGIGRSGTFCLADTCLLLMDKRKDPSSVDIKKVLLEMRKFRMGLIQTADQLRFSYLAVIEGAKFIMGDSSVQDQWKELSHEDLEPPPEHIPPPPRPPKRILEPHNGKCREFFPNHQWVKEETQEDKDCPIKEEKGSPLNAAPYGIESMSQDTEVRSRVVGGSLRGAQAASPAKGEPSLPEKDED

HepG2 cells = experiment: Western blotting, HepG2 normal model; type: cell-based, human; details: 24 h
Protocol: HepG2 cells were obtained directly from ATCC (HB-8065) and cultured in DMEM with low glucose, supplemented with fetal bovine serum, 100 U/mL penicillin G, and […] streptomycin. The media was freshly prepared and sterilized by filtration. Cells were maintained with a maximum of 10 passages before being discarded. For cell counting, the cells were washed twice with phosphate-buffered saline (PBS), trypsinized, and counted using a Neubauer chamber. For the insulin-resistant model, 75,000 cells per well were seeded in 6-well plates at 37 °C in 5% CO2 and cultured for 72 h. Subsequently, insulin (0.1 μM) was added to induce insulin resistance for 24 h. After this period, inhibitors were incubated for 24 h, followed by a final 30 min insulin stimulation (0.1 μM) before protein extraction. For the normal model, 75,000 cells per well were seeded in 6-well plates at 37 °C in 5% CO2 and cultured for 96 h. After that, the cells were incubated with the inhibitors for 24 h, followed by protein extraction.
Treated cells were washed twice with 1 mL of PBS, and proteins were extracted using 300 μL of a buffer solution containing 10% sodium deoxycholate in 10% TEAB, supplemented with a protease and phosphatase inhibitor cocktail. The extracts were heated at 80 °C for 5 min and dissociated by repeated passages through an insulin syringe. The cell extracts were centrifuged at 15,000 rpm for 15 min at 4 °C, and the supernatant was collected. Protein quantification was performed using the bicinchoninic acid assay, and aliquots were prepared for Western blotting. SDS-PAGE was conducted, and proteins were transferred onto a nitrocellulose membrane. The membrane was blocked with 10% skim milk in TBST for 1 h and incubated overnight with primary antibodies (1:400 dilution). Secondary antibodies conjugated to horseradish peroxidase were diluted 1:2,000, and the membranes were incubated for 1 h at room temperature. Blots were visualized using the ChemiDoc MP (Bio-Rad), and densitometric analysis was performed with ImageJ (U.S. National Institutes of Health). Statistical analyses were conducted using GraphPad Prism 8.0.
compounds at 24 h of treatment. β-actin was employed as loading control. b) Densitometric analysis of western blot images
employing ImageJ analysis software. Bar graphs represent the mean ± SEM of normalized values. The control levels were set to
1. Asterisks indicate statistical significance according to the Dunn test. p* < 0.05
(1 picture or pasted object on this page, not shown here)

| IC50 (hPTP1B1–400) [µM] | Structure (SMILES) | p-STAT3 levels (HepG2 cells) | p-IRS levels (HepG2 cells) |
| --- | --- | --- | --- |
| 1.58 ± 0.07 | CC1(C)c2[nH]c3ccc(OC(F)F)cc3c2C[C@]2(C)[C@H]3C(=O)C=C4[C@@H]5C[C@@](C)(C(=O)O)CC[C@]5(C)CC[C@@]4(C)[C@]3(C)CC[C@@H]12 [compound 4b, (20β)-5′-(Difluoromethoxy)-11-oxo-1′H-oleana-2,12-dieno[3,2-b]indol-29-oic Acid] | only a minor increase | – |
| 2.06 ± 0.12 | CC1(C)c2[nH]c3ccc(S(N)(=O)=O)cc3c2C[C@]2(C)[C@H]3C(=O)C=C4[C@@H]5C[C@@](C)(C(=O)O)CC[C@]5(C)CC[C@@]4(C)[C@]3(C)CC[C@@H]12 [compound 4g, (20β)-5′-Sulfamoyl-11-oxo-1′H-oleana-2,12-dieno[3,2-b]indol-29-oic Acid] | slight but not statistically significant increase | slight but not statistically significant increase |
| 1.48 ± 0.18 | CC1(C)c2c(cnn2-c2ccc(S(N)(=O)=O)cc2)C[C@]2(C)[C@H]3C(=O)C=C4[C@@H]5C[C@@](C)(C(=O)O)CC[C@]5(C)CC[C@@]4(C)[C@]3(C)CC[C@@H]12 [compound 5g, (20β)-11-Oxo-2′-(4-sulfamoylphenyl)-2′H-oleana-2,12-dieno[3,2-c]pyrazol-29-oic Acid] | – | – |
